This is an account of results in publication PMC5748531, “Antimycobacterial Activities of N-Substituted-Glycinyl 1H-1,2,3-Triazolyl Oxazolidinones and Analytical Method Development and Validation for a Representative Compound” (Scientia Pharmaceutica, 2017).

Values after ≈ are worked out from the molar mass of the structure shown.

Data set [1] deals with Mtb H37Rv (SRI 1345). As to the kind of experiment: MIC broth microdilution, Mtb H37Rv. In kind it is cell-based. The settings on record: Mycobacterium tuberculosis, 168 h, read-out: MIC H37Rv.
Data set [2] is described as follows: in vitro. The following applies: mouse.
The format of data set [3] is in vitro ADME. The following applies: 90 min, 50 μg/mL. How it is done: Aliquots of 0.5 mL of plasma samples (calibration standards) were mixed with 200 μL aliquots of internal standard solution using appropriate concentration (10–90 μg/mL) for PH-189 concentrations. The samples were loaded unto solid phase extraction (SPE) cartridges on a vacuum 20 position extraction manifold (Waters). The cartridges were pre-conditioned with 1 mL of acetonitrile followed by 1 mL of water. The loaded cartridges were washed with 1 mL of acetonitrile and the analytes (PH-189 and internal standard) were eluted with acetonitrile into a 1.5 mL glass vials. The collected samples were filtered using Kinesis syringe membrane filters (Kinesis Ltd, St Neots, UK) (13 mm) and were used for injection and analysis. The PH-189/internal standard ratios were used to calculate calibration curve and to determine PH-189 concentration in human plasma after 90 min at 37 °C.
Accuracy and precision of the UHPLC method for PH-189 was evaluated by preparing six sets of PH-189 in blank human plasma within the concentration ranges of the calibration curve. Accuracy and precision were performed in triplicate using four concentration levels of 1, 10, 50, and 90 μg/mL. […] Freezer-stored samples were thawed, extracted, and analyzed as previously mentioned. […]

Data set [4] in a line: Stock standard solution stability. The format is physicochemical. The settings on record: 100 μg/mL in acetonitrile, refrigerator (4 °C). As to the method:
Stock standard solutions of PH-189 and indapamide as internal standard were separately prepared by dissolving 10 mg of the compounds in 100 mL of acetonitrile to give stock concentrations of 100 μg/mL. Working solutions of PH-189 and internal standard were prepared by diluting the stock solutions with acetonitrile to obtain concentrations of 10 μg/mL and 90 μg/mL. Stock solutions were stable for at least 5 weeks when stored in a refrigerator (4 °C).

The test system of data set [5] is S. aureus. Also on record: method as in PMID 23811087. The settings on record: S. aureus in vitro; cited from earlier work.
The subject of data set [6] is Mtb H37Rv (SRI 1345). As to the kind of experiment: Low-oxygen recovery assay (LORA), non-replicating persistence. In kind it is cell-based, Mycobacterium tuberculosis. The following applies: 7 days anaerobic then 7 days ambient, 37 °C.
In data set [7] the test system is Mtb H37Rv, INH-R, RMP-R and OFX-R Mtb. As to the kind of experiment: MIC screening, all Mtb strains tested. In kind it is cell-based, Mycobacterium tuberculosis. The settings on record: range over H37Rv.
A short description of data set [8]: Drug cytotoxicity control plate assay (MTT cell proliferation). The following applies: mouse.
In data set [9] the test system is Mtb H37Rv (SRI 1345). As to the kind of experiment: Minimal bactericidal concentration (MBC). The format is cell-based. The settings on record: Mycobacterium tuberculosis, read-out: MBC H37Rv.
Data set [10] relates to intracellular (macrophage) Mtb H37Rv (SRI 1345) in J774 cells. In words: Intracellular (macrophage) drug screening assay. In kind it is cell-based, Mycobacterium tuberculosis. The following applies: range at the three concentrations tested.
Where [11] appears, read: Mycobacterium tuberculosis, H37RV, 168 h, read-out: LORA, lowest concentration that visually inhibits growth.
Where [12] appears, read: MTT % Viability (High Conc.), high conc., same as in macrophage assay.
Where [13] appears, read: MTT % Viability (Low Conc.), low conc., same as in macrophage assay.
Setting [14] is: MTT % Viability (Mid Conc.), mid conc., same as in macrophage assay.

In general, viability refers to the share of living cells, or the viability signal relative to a control. With `CCOC(=O)CC(=O)NCC(=O)N1CCN(c2ccc(N3CC(Cn4ccnn4)OC3=O)cc2F)CC1` (centres unmarked) [PH-169], the MIC in [1] came to 2.9 µM (≈ 1.5 µg/mL). Further, the viability turned out to be 73% in data set [2] (MTT % Viability (High Conc.)), 76% in [2] (MTT % Viability (Low Conc.)) and 75% in data set [2] (MTT % Viability (Mid Conc.)).
In the case of `O=C(NCC(=O)N1CCN(c2ccc(N3CC(Cn4ccnn4)OC3=O)cc2F)CC1)c1ccc([N+](=O)[O-])o1` (centres unmarked) [PH-189], the MIC in data set [1] was 0.5 µM (≈ 0.271 µg/mL). Moreover, the “average amount of PH-189 found in human plasma” value in data set [3] was 48.79 µg/mL. Also, the “recovered from human plasma” value in data set [3] is given as “more than 90%”. In addition, in data set [4], the “stock solutions stable for” value is on record as “at least 5 weeks”. Further, the “MIC value in the presence of 50% human plasma” value in [5] is listed as “remained unchanged”. For the same compound, the values for the viability in data set [2] (MTT % Viability (High Conc.)), in data set [2] (MTT % Viability (Low Conc.)) and in [2] (MTT % Viability (Mid Conc.)) were 86%, 98% and 88%, respectively.
As to `Cc1cn(CC2CN(c3ccc(N4CCN(C(=O)CNC(=O)c5ccc([N+](=O)[O-])o5)CC4)c(F)c3)C(=O)O2)nn1` (centres unmarked) [PH-145], the MIC in [1] came out at 0.5 µM (≈ 0.278 µg/mL). Also, the viability came out at 75% in [2] (MTT % Viability (High Conc.)), 87% in data set [2] (MTT % Viability (Low Conc.)) and 93% in data set [2] (MTT % Viability (Mid Conc.)).
With `Cc1cn(CC2CN(c3ccc(N4CCN(C(=O)CN)CC4)c(F)c3)C(=O)O2)nn1` (centres unmarked) [PH-151], the results for the MIC in data set [1] and in data set [6] (setting [11]) were 5.8 µM (≈ 2.42 µg/mL) and above 58 µM, respectively. The viability in data set [2] (MTT % Viability (High Conc.)) came to 74%; in data set [2] (MTT % Viability (Low Conc.)), 83%; in data set [2] (MTT % Viability (Mid Conc.)), 87%.
Consider `O=C(NCC(=O)N1CCN(c2ccc(N3CC(Cn4ccnn4)OC3=O)cc2F)CC1)c1cccnc1` (centres unmarked) [PH-195], for which, in data set [1], the MIC amounted to 3.9 µM (≈ 1.98 µg/mL). Further, the viability in data set [2] (MTT % Viability (High Conc.)) was 71%; in [2] (MTT % Viability (Low Conc.)), 100%; in data set [2] (MTT % Viability (Mid Conc.)) it was 100%.
With `CC(=O)NCC(=O)N1CCN(c2ccc(N3CC(Cn4ccnn4)OC3=O)cc2F)CC1` (centres unmarked) [PH-165], the figures for the MIC in data set [1] and in data set [6] (setting [11]) were 6.7 µM (≈ 2.98 µg/mL) and above 58 µM, respectively. Further, the viability was 84% in data set [2] (MTT % Viability (High Conc.)), 91% in data set [2] (MTT % Viability (Low Conc.)) and 87% in data set [2] (MTT % Viability (Mid Conc.)).
For `CCOC(=O)CC(=O)NCC(=O)N1CCN(c2ccc(N3CC(Cn4cc(C)nn4)OC3=O)cc2F)CC1` (centres unmarked) [PH-150], in that order: 5.8 µM (≈ 3.08 µg/mL), above 58 µM, 62%, 78% and 82%.
Regarding `O=C(NCC(=O)N1CCN(c2ccc(N3CC(Cn4ccnn4)OC3=O)cc2F)CC1)c1cc([N+](=O)[O-])cc([N+](=O)[O-])c1` (centres unmarked) [PH-193], the MIC in data set [1] came out at 1.7 µM (≈ 1.02 µg/mL). The “MIC value range against all Mtb strains tested” value in data set [7] is 0.052 to 3.3 µM. Moreover, the viability was determined as 74% in data set [8] (setting [12]), 100% in data set [8] (setting [13]) and 100% in data set [8] (setting [14]).
Turning to `NCC(=O)N1CCN(c2ccc(N3CC(Cn4ccnn4)OC3=O)cc2F)CC1` (centres unmarked) [PH-172], the MIC in data set [1] is 3.6 µM (≈ 1.45 µg/mL); in data set [6] (setting [11]), above 58 µM; in [6] (lowest concentration that visually inhibits growth, read-out: LORA), above 58 µM. Besides, the viability in [2] (MTT % Viability (High Conc.)) turned out to be 71%; in [2] (MTT % Viability (Low Conc.)) it was 87%; in data set [2] (MTT % Viability (Mid Conc.)), 72%.
Turning to `Cc1cn(CC2CN(c3ccc(N4CCN(C(=O)CNC(=O)c5cccnc5)CC4)c(F)c3)C(=O)O2)nn1` (centres unmarked) [PH-185], the MIC in [1] fell in the range of 5.7 to 11.5 µM (≈ 2.98 to 6.01 µg/mL). Also, the values for the viability in [2] (MTT % Viability (High Conc.)), in data set [2] (MTT % Viability (Low Conc.)) and in data set [2] (MTT % Viability (Mid Conc.)) were 39%, 88% and 94%, respectively.
As for `Cc1cn(CC2CN(c3ccc(N4CCN(C(=O)CNC(=O)C(Cl)Cl)CC4)c(F)c3)C(=O)O2)nn1` (centres unmarked) [PH-182], the MIC in data set [1] is 1.9 µM (≈ 1 µg/mL); in data set [6] (setting [11]) it was 0.015 to 5.7 µM (≈ 0.00793 to 3.01 µg/mL). The viability turned out to be 87% in data set [2] (MTT % Viability (High Conc.)), 84% in data set [2] (MTT % Viability (Low Conc.)) and 90% in data set [2] (MTT % Viability (Mid Conc.)).
On to `Cc1cn(CC2CN(c3ccc(N4CCN(C(=O)CNC(=O)c5cc([N+](=O)[O-])cc([N+](=O)[O-])c5)CC4)c(F)c3)C(=O)O2)nn1` (centres unmarked) [PH-181], for which the MIC in data set [1] came to 3.3 µM (≈ 2.02 µg/mL). For the same compound, the “MIC value range against all Mtb strains tested” value in data set [7] lay in the range of 0.052 to 3.3 µM. For the same compound, the viability in data set [8] (setting [12]) was 39%; in [8] (setting [13]), 91%; in data set [8] (setting [14]), 88%.
The term MBC denotes the lowest tested concentration that kills the bacteria rather than only halting them. In the case of `CO[C@H]1/C=C/O[C@@]2(C)Oc3c(C)c(O)c4c(O)c(c(/C=N/N5CCN(C)CC5)c(O)c4c3C2=O)NC(=O)/C(C)=C\C=C\[C@H](C)[C@H](O)[C@@H](C)[C@@H](O)[C@@H](C)[C@H](OC(C)=O)[C@@H]1C` [RMP, Rifampicin, reference compound], the MIC in data set [1] amounted to 0.06 µM (≈ 0.0494 µg/mL); in [6] (Mycobacterium tuberculosis, H37RV, 168 h, lowest concentration that visually inhibits growth, read-out: LORA) it was 0.95 µM (≈ 0.782 µg/mL). The minimal bactericidal concentration (MBC) in [9] is 1.56 µM (≈ 1.28 µg/mL). In addition, in [10], the “Macrophage log reduction in Mtb, range” value is reported as 1.62–2.43. Further, the viability in data set [8] (uninfected J774 macrophages, MTT % Viability (High Conc.), high conc., same as in macrophage assay) is 84%; in [8] (uninfected J774 macrophages, MTT % Viability (Low Conc.), low conc., same as in macrophage assay), 92%; in [8] (uninfected J774 macrophages, MTT % Viability (Mid Conc.), mid conc., same as in macrophage assay), 85%; in data set [8] (uninfected J774 macrophages, MTT percent cell viability, range, range at the three concentrations tested), 84 to 92%.
